Test results reported in patent US20230148602A1, “BENZAMIDE COMPOUND AND HERBICIDE” (Nippon Soda Co., Ltd., priority 2020, published 2023).

Columns and labels:
[1] = system: Alopecurus myosuroides; experiment: Test Example 1 foliage treatment, weed killing rate; assay type: in vivo; conditions: foliar, 504 h, 250 g/ha active ingredient, foliage spray, after 3 weeks
Method: (§1) POA allylphenyl ether (4.1 parts by weight), POE-POP glycol (1 part by weight), POE sorbitan laurate (0.8 parts by weight), glycerin (2.6 parts by weight), dimethylformamide (65.9 parts by weight), N-methylpyrrolidone (5.1 parts by weight), cyclohexanone (15.4 parts by weight), and aromatic hydrocarbons (5.1 parts by weight) were mixed to obtain an emulsion.
(§2) The compound of the present invention (4 mg) was dissolved in this emulsion (100 μt) to obtain a test emulsion. POA means “polyoxyalkylene”, POE means “polyoxyethylene”, and POP means “polyoxypropylene”.
(§3) In a 150 cm^2 pot filled with soil, seeds of Digitaria ciliaris, Amaranthus retroflexus, Alopecurus myosuroides and Matricaria chamomilla were respectively sown and covered lightly with soil. Thereafter, they were grown in a greenhouse. When each plant grew to a plant height of 2 to 5 cm, the above test emulsion was diluted with water and sprayed on the foliage with a small sprayer at a spray water volume of 250 L per hectare (the amount of active ingredient of 250 g per hectare).
(§4) After 3 weeks, the above ground weights of weeds in the untreated and treated areas were measured for each plant, and the weed killing rate was calculated by the following calculation formula.
(§5) Weed killing rate (%)=[{(above ground weight of weeds in untreated area)−(above ground weight of weeds in treated area)}/(above ground weight of weeds in untreated area)]×100

[2] = system: Amaranthus retroflexus; experiment: as above; assay type: in vivo; conditions: foliar, 504 h, 250 g/ha active ingredient, foliage spray, after 3 weeks
Method: as §1, §2, §3, §4, §5

[3] = system: Matricaria chamomilla; experiment: as above; assay type: in vivo; conditions: foliar, 504 h, 250 g/ha active ingredient, foliage spray, after 3 weeks
Method: as §1, §2, §3, §4, §5

[4] = system: Digitaria ciliaris; experiment: as above; assay type: in vivo; conditions: foliar, 504 h, 250 g/ha active ingredient, foliage spray, after 3 weeks
Method: as §1, §2, §3, §4, §5

[5] = system: Zea mays; experiment: Test Example 2 foliage treatment, weed killing rate on maize (phytotoxicity); assay type: in vivo; conditions: foliage spray, after 4 weeks, crop (phytotoxicity to maize)
Method: (§6) In a 150 cm^2 pot filled with soil, seeds of Alopecurus myosuroides, Setaria faberi and Zea mays were sown and covered lightly with soil. Thereafter, they were grown in a greenhouse. When Alopecurus myosuroides and Setaria faberi grew to a plant height of 2 to 5 cm and Zea mays grew to 30 to 35 cm, the test emulsion obtained in Test Example 1 was diluted with water and sprayed on the foliage with a small sprayer at a spray water volume of 250 L per hectare (the amount of active ingredient of 250 g, 63 g, or 16 g per hectare). Also for the compound represented by the formula (B) (Compound No. B-1), a test emulsion was obtained in the same manner as in Test Example 1, and Test Example 2 was carried out using the emulsion. After 4 weeks, the above ground weights of weeds in the untreated and treated areas were measured for each plant, and the weed killing rate was calculated by the following calculation formula. Weed killing rate (%)=[{(above ground weight of weeds in untreated area)−(above ground weight of weeds in treated area)}/(above ground weight of weeds in untreated area)]×100

[6] = system: Alopecurus myosuroides; experiment: Test Example 2 foliage treatment, weed killing rate; assay type: in vivo; conditions: foliage spray, after 4 weeks
Method: as §6

[7] = system: Setaria faberi; experiment: as above; assay type: in vivo; conditions: foliage spray, after 4 weeks
Method: as §6

| Structure (SMILES) | pest or weed control at 250 g/ha [1] [%] | pest or weed control at 250 g/ha [2] [%] | pest or weed control at 250 g/ha [3] [%] | pest or weed control at 250 g/ha [4] [%] | melting point [°C] | also measured |
| --- | --- | --- | --- | --- | --- | --- |
| Cc1c(NC(=O)C(=O)N(C)C)c(Br)cc(F)c1C(=O)Nc1nnnn1C [A-1, N^1-(6-bromo-4-fluoro-2-methyl-3-((1-methyl-1H-tetrazol-5-yl)carbamoyl)phenyl)-N^2,N^2-dimethyloxalamide] | 100 | 100 | 100 | 100 | – | – |
| CCN(C)C(=O)C(=O)Nc1c(Br)cc(F)c(C(=O)Nc2nnnn2C)c1C [A-2] | 100 | 100 | 100 | 100 | 191 to 194 | – |
| Cc1c(NC(=O)C(=O)N(C)CC(F)(F)F)c(Br)cc(F)c1C(=O)Nc1nnnn1C [A-3] | 100 | 100 | 100 | 100 | – | Weed killing rate Zea mays ([5]; 16 g/ha active ingredient): 0%; Weed killing rate Zea mays ([5]; 63 g/ha active ingredient): 0%; Weed killing rate Zea mays ([5]; 250 g/ha active ingredient): 30%; Weed killing rate Alopecurus myosuroides ([6]; 16 g/ha active ingredient): 80%; Weed killing rate Alopecurus myosuroides ([6]; 63 g/ha active ingredient): 100%; Weed killing rate Alopecurus myosuroides ([6]; 250 g/ha active ingredient): 100%; Weed killing rate Setaria faberi ([7]; 16 g/ha active ingredient): 50%; Weed killing rate Setaria faberi ([7]; 63 g/ha active ingredient): 100%; Weed killing rate Setaria faberi ([7]; 250 g/ha active ingredient): 100% |
| COCCN(C)C(=O)C(=O)Nc1c(Br)cc(F)c(C(=O)Nc2nnnn2C)c1C [A-5] | 70 | 80 | – | 80 | 179 to 181 | – |
| Cc1c(NC(=O)C(=O)N(C)C2CC2)c(Br)cc(F)c1C(=O)Nc1nnnn1C [A-6] | 90 | 100 | 100 | 80 | 188 to 192 | – |
| Cc1c(NC(=O)C(=O)N2CCOCC2)c(Br)cc(F)c1C(=O)Nc1nnnn1C [A-7] | – | 70 | – | – | 244 to 246 | – |
| CCN(C)C(=O)C(=O)Nc1c(Br)cc(F)c(C(=O)Nc2nnnn2C)c1Cl [A-8] | 100 | 100 | 100 | 70 | 233 to 235 | – |
| CCN(CC)C(=O)C(=O)Nc1c(Br)cc(F)c(C(=O)Nc2nnnn2C)c1Cl [A-9] | 100 | 80 | 100 | 70 | 220 to 223 | – |
| CN(CC(F)(F)F)C(=O)C(=O)Nc1c(Br)cc(F)c(C(=O)Nc2nnnn2C)c1Cl [A-10] | 70 | 100 | 100 | – | 243 to 246 | – |
| Cc1c(C(=O)Nc2nnnn2C)ccc(Br)c1NC(=O)C(=O)N(C)CC(F)(F)F [A-11] | 100 | 100 | 100 | 100 | 204 to 206 | – |
| Cc1c(NC(=O)C(=O)N(C)CC(F)(F)F)cccc1C(=O)Nc1nnnn1C [A-12] | – | – | – | – | 104 to 107 | – |
| CCN(CC)C(=O)C(=O)Nc1c(Br)cc(F)c(C(=O)Nc2nnnn2C)c1C [A-13] | 100 | 100 | 100 | 90 | 198 to 201 | – |
| Cc1c(NC(=O)C(=O)N2CCCC2)c(Br)cc(F)c1C(=O)Nc1nnnn1C [A-14] | – | 80 | – | – | 275 to 278 | – |
| CCOC(=O)C(=O)Nc1c(Br)cc(F)c(C(=O)Nc2nnnn2C)c1C [A-15] | – | – | – | – | 154 to 157 | – |
| CC(=O)C(=O)Nc1c(Br)cc(F)c(C(=O)Nc2nnnn2C)c1C [A-16] | – | 70 | 90 | – | 221 to 223 | – |
| CON(C)C(=O)C(=O)Nc1c(Br)cc(F)c(C(=O)Nc2nnnn2C)c1C [A-17] | – | – | – | – | 212 to 215 | – |
| Cc1c(C(=O)Nc2nnnn2C)ccc(C(F)(F)F)c1NC(=O)C(=O)N(C)CC(F)(F)F [A-18] | – | – | – | – | 190 to 193 | – |
| Cc1c(NC(=O)N(C)CC(F)(F)F)c(Br)cc(F)c1C(=O)Nc1nnnn1C [B-1, reference compound] | – | – | – | – | – | Weed killing rate Zea mays ([5]; 16 g/ha active ingredient): 20%; Weed killing rate Zea mays ([5]; 63 g/ha active ingredient): 30%; Weed killing rate Zea mays ([5]; 250 g/ha active ingredient): 90%; Weed killing rate Alopecurus myosuroides ([6]; 16 g/ha active ingredient): 40%; Weed killing rate Alopecurus myosuroides ([6]; 63 g/ha active ingredient): 50%; Weed killing rate Alopecurus myosuroides ([6]; 250 g/ha active ingredient): 90%; Weed killing rate Setaria faberi ([7]; 16 g/ha active ingredient): 20%; Weed killing rate Setaria faberi ([7]; 63 g/ha active ingredient): 50%; Weed killing rate Setaria faberi ([7]; 250 g/ha active ingredient): 100% |
